The source of these data is ChEMBL document CHEMBL5518204, “Discovery and Proof of Concept of Potent Dual Polθ/PARP Inhibitors for Efficient Treatment of Homologous Recombination-Deficient Tumors” (J Med Chem, 2024).

Data set [1] deals with MDA-MB-231. Nature of the data set: Antitumor activity against human MDA-MB-231 cells xenografted in ip dosed BALB/c mouse assessed as increase in gammaH2Ax expression administered for 21 days. The settings on record: dose 20-40 mg/kg, time 21.0 day. It counts as functional, organism-based.
The target in data set [2] is T1, Protein mono-ADP-ribosyltransferase PARP8 (Homo sapiens, UniProt Q8N3A8).
T1 sequence (Q8N3A8 whole entry): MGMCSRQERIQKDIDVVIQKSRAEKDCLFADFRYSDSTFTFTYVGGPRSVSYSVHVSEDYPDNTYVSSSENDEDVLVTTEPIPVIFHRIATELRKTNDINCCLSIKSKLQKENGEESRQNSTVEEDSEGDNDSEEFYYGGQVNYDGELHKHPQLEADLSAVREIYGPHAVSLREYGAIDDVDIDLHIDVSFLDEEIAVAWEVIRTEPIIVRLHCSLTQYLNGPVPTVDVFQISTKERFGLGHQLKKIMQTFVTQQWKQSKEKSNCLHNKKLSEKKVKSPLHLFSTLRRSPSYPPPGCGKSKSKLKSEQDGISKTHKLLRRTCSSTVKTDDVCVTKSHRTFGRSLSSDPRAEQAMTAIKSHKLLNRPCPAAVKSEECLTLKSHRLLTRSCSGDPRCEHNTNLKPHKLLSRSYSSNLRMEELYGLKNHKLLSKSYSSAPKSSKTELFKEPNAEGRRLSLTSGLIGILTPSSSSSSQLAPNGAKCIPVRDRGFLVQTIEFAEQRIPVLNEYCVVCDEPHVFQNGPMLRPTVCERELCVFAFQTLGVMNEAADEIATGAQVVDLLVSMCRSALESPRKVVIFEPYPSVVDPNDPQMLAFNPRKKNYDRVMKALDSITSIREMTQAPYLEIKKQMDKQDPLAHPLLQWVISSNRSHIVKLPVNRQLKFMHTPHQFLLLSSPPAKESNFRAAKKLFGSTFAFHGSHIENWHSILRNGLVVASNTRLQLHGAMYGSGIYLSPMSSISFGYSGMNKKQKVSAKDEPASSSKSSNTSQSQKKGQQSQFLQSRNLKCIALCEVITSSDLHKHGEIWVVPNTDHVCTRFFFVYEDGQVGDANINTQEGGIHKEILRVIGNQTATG
Nature of the data set: Inhibition of PARP8 (unknown origin).

Data set [3] concerns the target Poly [ADP-ribose] polymerase 1 (Homo sapiens, UniProt P09874). Nature of the data set: Inhibition of human PARP1 incubated for 90 mins by colorimetric assay.
Data set [4] in a line: Stability in mouse plasma assessed as half life. It counts as ADME, cell-free.
In data set [5] the test system is MDA-MB-231. Nature of the data set: Antitumor activity against human MDA-MB-231 cells xenografted in BALB/c mouse assessed as tumor growth inhibition at 40 mg/kg, ip administered for 21 days. The format is functional. The settings on record: MDA-MB-231, 504 h, time 21 day, read-out: TGI. (Xenograft models place foreign cells or tissue in a host animal.)
Data set [6] addresses T2, Protein mono-ADP-ribosyltransferase TIPARP (Homo sapiens, UniProt Q7Z3E1).
T2 sequence (Q7Z3E1 whole entry): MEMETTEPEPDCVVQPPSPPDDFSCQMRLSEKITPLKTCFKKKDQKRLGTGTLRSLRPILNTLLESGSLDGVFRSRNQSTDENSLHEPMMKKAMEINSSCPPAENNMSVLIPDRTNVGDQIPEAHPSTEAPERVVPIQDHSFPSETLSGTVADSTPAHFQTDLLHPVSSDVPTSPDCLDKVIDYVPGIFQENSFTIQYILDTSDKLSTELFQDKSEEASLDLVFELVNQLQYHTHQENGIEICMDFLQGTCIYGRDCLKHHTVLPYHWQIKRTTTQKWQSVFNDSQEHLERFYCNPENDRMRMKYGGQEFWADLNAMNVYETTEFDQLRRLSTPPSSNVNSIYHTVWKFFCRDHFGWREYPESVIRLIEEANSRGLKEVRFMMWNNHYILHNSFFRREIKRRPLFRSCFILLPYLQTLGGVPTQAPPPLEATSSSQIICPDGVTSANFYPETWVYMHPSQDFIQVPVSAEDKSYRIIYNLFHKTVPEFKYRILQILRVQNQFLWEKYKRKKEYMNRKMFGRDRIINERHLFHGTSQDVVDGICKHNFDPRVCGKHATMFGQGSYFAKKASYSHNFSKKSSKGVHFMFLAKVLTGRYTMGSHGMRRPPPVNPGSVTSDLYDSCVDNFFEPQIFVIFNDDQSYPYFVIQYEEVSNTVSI
The data set is described as follows: Inhibition of PARP7 (unknown origin).

For a further data set, the system named is MCF-10A. Nature of the data set: Effect on PARP1 expression in human MCF-10A cells by immunoblotting analysis. It counts as functional, cell-based. (In general: A western blot detects proteins with antibodies after separation by electrophoresis.)
Data set [7] deals with MDA-MB-231. The data set is described as follows: Antiproliferative activity against human MDA-MB-231 cells incubated for 4 days by MTT assay. The format is functional, cell-based. The settings on record: time 4.0 day.
The subject of data set [8] is MDA-MB-231. Nature of the data set: Induction of apoptosis in human MDA-MB-231 cells at 2 uM incubated for 3 days by Annexin V-APC/7-AAD based flow cytometry analysis. It counts as functional. The note with it: time 3 day.
Data set [9] relates to MDA-MB-231. Nature of the data set: Antitumor activity against human MDA-MB-231 cells xenografted in BALB/c mouse assessed as tumor growth inhibition at 20 mg/kg, ip administered for 21 days. It counts as functional. The note with it: MDA-MB-231, 504 h, time 21 day, read-out: TGI.
The target in data set [10] is T3, Protein mono-ADP-ribosyltransferase PARP3 (Homo sapiens, UniProt Q9Y6F1).
T3 sequence (Q9Y6F1 whole entry): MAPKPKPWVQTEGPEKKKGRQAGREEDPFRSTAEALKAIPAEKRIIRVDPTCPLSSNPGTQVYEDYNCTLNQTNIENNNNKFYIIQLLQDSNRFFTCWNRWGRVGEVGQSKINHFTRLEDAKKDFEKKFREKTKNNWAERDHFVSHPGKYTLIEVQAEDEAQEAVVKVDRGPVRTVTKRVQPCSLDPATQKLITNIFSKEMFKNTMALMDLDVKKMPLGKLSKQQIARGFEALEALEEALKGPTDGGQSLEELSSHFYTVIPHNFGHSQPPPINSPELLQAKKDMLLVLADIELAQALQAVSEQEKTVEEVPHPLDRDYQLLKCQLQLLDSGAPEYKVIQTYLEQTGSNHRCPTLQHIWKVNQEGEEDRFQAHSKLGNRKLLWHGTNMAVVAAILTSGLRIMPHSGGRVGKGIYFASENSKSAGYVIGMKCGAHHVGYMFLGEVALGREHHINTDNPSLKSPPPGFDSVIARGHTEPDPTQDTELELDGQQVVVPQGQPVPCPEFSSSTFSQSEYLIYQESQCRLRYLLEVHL
The data set is described as follows: Inhibition of PARP3 (unknown origin).

Another data set has as its system HCC1937. The data set is described as follows: Antiproliferative activity against BRCA1-deficient human HCC1937 cells assessed as inhibition of cell proliferation incubated for 5 days by MTT assay. It counts as functional, cell-based. The settings on record: HCC1937, 120 h. In general terms: Tetrazolium assays rely on reduction of a dye to a coloured formazan, in cell work by metabolically active cells.

Data set [11] deals with MDA-MB-231. Nature of the data set: Induction of DNA damage in human MDA-MB-231 cells assessed as increase in gammaH2AX foci at 2 uM incubated for 3 days by DAPI staining based confocal laser scanning microscopic analysis. It counts as functional, cell-based. The note with it: time 3.0 day.

The source made the active and inactive calls. The calls are words filed in the database; no cut-off is given here.

As usually defined, the IC50 is the point on the concentration scale where inhibition reaches its midpoint. The term half-life denotes the time in which the quantity being followed falls by half.

Chain of Poly [ADP-ribose] polymerase 1 (P09874 whole entry): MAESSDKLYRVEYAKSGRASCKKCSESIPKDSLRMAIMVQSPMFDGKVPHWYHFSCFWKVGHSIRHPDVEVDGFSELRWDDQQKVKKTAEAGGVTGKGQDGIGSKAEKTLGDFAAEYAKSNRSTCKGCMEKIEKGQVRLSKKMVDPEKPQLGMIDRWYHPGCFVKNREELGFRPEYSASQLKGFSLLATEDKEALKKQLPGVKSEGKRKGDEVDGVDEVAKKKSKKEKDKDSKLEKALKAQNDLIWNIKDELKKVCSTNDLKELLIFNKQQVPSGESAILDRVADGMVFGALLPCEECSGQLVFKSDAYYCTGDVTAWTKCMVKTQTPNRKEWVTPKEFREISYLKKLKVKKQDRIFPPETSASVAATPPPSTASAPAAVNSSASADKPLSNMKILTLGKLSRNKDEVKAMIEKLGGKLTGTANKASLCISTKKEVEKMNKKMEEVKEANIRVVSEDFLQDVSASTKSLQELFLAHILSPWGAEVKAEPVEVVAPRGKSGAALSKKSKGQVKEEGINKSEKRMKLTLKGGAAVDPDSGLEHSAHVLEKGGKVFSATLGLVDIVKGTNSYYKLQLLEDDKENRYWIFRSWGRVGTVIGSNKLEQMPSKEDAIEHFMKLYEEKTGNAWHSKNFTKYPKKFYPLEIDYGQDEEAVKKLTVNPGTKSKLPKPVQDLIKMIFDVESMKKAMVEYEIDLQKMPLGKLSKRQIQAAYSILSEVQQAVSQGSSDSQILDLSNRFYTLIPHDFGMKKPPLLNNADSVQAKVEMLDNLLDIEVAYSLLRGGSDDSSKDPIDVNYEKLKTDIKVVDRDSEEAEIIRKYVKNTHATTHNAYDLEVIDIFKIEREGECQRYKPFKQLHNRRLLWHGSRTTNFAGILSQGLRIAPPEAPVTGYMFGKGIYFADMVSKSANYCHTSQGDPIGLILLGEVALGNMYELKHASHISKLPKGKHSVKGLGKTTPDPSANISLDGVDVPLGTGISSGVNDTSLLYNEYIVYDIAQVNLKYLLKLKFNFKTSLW

Take `COc1ccc(Cl)cc1-c1cc(C)ncc1C(=O)Nc1nnc(OCC2CCN(C(=O)c3cc(Cc4n[nH]c(=O)c5ccccc45)ccc3F)CC2)s1`: the figures for the Activity result in the data set on MDA-MB-231 [1] and in the data set on MDA-MB-231 [8] were “Dose-Dependent Effect” and 26.7%, respectively. Further, the IC50 is 2930 nM in [2]; 5.4 nM in data set [3]; 194 nM in [6]; 51.2 nM in data set [10]; 20900 nM with HCC1937. Also, the half-life in data set [4] was 38.5 h. The inhibition in vivo at 40 mg/kg in the data set on MDA-MB-231 [5] is 74.7%. In addition, the result with MCF-10A, in the data set on MDA-MB-231 [7] and with MDA-MB-231 [11] was Active. Besides, the inhibition in vivo at 20 mg/kg in the data set with MDA-MB-231 [9] is 40.6%.
